The source of these data is US20210322545A1 (priority 2016, published 2021).

Several values for one entry are separate records, joined by “and”; a condition that tells them apart may be missing. Equal entries are not always repeated. Entries after “also recorded” stand apart in the source; their conditions may differ. Where two headings read alike, the source gives them in different places.

The test system of series [1] is intracranial CT-2A tumors. As to conditions: mouse, in vivo.
In another series the test system is EMT6, 4T1 or CT-2A cells. As to conditions: mouse, in vivo.
In series [2] the test system is SNB75 cells. Type of series: cell-based, human.
The subject of series [3] is EMT6 cells. Put plainly: cells. Type of series: cell-based. The note with it: Mus musculus, EMT6, read-out: EC50 of SMC therapy.
Series [4] has as its system intracranial CT-2A tumors. As to conditions: mouse, in vivo. This is another data set of the same source.
For the next series, the system named is cancer cells. Type of series: cell-based.
Series [5] deals with SNB75 cells. Kind of series: cells. The class given is cell-based. As to conditions: Homo sapiens, SNB-75, read-out: EC50 of SMC therapy.
In another series the test system is MPC-11 Fluc cells. The note with it: mouse, in vivo.
The next series relates to CT-26 tumors. The note with it: mouse, in vivo, sc.
Another series concerns MM cells. The class given is cell-based.
The subject of the next series is glioma cells. Type of series: cell-based.
Another series has as its system CD8 T-cells. The class given is cell-based, mouse.
Series [6] has as its system intracranial GL261 tumors. The note with it: mouse, in vivo.
The test system of series [7] is U266, MM1R and MM1S cells.
The next series relates to EMT6 mammary tumors. The class given is in vivo, mouse.
The next series has as its system HT-29 tumors. The note with it: mouse, in vivo.
For series [8] the following is noted: mouse, in vivo.
For a further series, the system named is VSVΔ51. The class given is cell-based.
In another series the test system is glioblastoma cells. Type of series: cell-based.
For another series, the system named is serum cytokines. The note with it: mouse, in vivo.
In series [9] the test system is EMT6 cells. Type of series: cell-based, mouse.
Series [10] deals with U266, MM1R and MM1S cells. Type of series: cell-based, human.
Series [11] concerns CT-2A and K1580 glioblastoma cells. The class given is cell-based, mouse.
The next series deals with TNF-α. The note with it: mouse, in vivo, ip.
The mark [12] stands for this setting: EMT6 tumors, 50 mg/kg LCL161 oral gavage.

From the text for cIAP1/2 and XIAP: Cells were scraped, collected by centrifugation and lysed in RIPA lysis buffer containing a protease inhibitor cocktail (Roche, Laval, Canada). Equal amounts of soluble protein were separated on polyacrylamide gels followed by transfer to nitrocellulose membranes. […] Our rabbit anti-rat IAP1 and IAP3 polyclonal antibodies were used to detect human and mouse cIAP1/2 and XIAP, respectively. AlexaFluor680 (Invitrogen) or IRDye800 (Li-Cor, Lincoln, USA) were used to detect the primary antibodies, and infrared fluorescent signals were detected using the Odyssey Infrared Imaging System (Li-Cor).
Cells were scraped, collected by centrifugation, and lysed in RIPA lysis buffer containing a protease inhibitor cocktail (Roche). Tumors were excised, minced, and lysed as above. Equal amounts of soluble protein were separated on polyacrylamide gels followed by transfer to nitrocellulose membranes. […] Rabbit anti-rat IAP1 and IAP3 polyclonal antibodies were used to detect human and mouse cIAP1/2 and XIAP, respectively (1:5000; Cyclex Co.). AlexaFluor680 (Invitrogen) or IRDye800 (Li-Cor) (1:2500) were used to detect the primary antibodies, and infrared fluorescent signals were detected using the Odyssey Infrared Imaging System (Li-Cor).
Method for serum cytokines: The detection of serum proteins following combinatorial SMC and anti-PD-1 treatment was analyzed by a flow cytometry-based multiplex kit (LEGENDplex inflammation panel from Biolegend).

Regarding `CC[C@H](NC(=O)[C@H](C)NC)C(=O)N1C[C@@H](O)C[C@H]1Cc1c(-c2[nH]c3cc(F)ccc3c2C[C@@H]2C[C@H](O)CN2C(=O)[C@H](CC)NC(=O)[C@H](C)NC)[nH]c2cc(F)ccc12` [Birinapant], the survival entry in series [1] (ip) is “significant increase in survival”.

Take `CN[C@@H](C)C(=O)N[C@H](C(=O)N1CCC[C@H]1c1nc(C(=O)c2ccc(F)cc2)cs1)C1CCCCC1` [LCL161]: the “tumor engraftment on rechallenge of cured mice” value with EMT6, 4T1 or CT-2A cells is “completely resistant to tumor engraftment”. Also, the “effect of SMC on induction of TRAIL and TNFα by IFNβ” value in the series on SNB75 cells [2] is listed as “potentiated the induction”. In series [1], the cure rate amounted to 50%; the “cure rate upon depletion of CD4+ T-cells” value worked out at 100%; the “cure rate upon depletion of CD8+ T-cells” value is on record as “completely abrogated”; the durable cures is 86% and 55%. In series [1], the “effect of IFNAR1 blocking antibody on SMC + anti-PD1 survival synergy” value is reported as “negated the synergistic effects”, the “effect of anti-IFN-γ antibody on SMC + ICI synergy” value is “partially inhibited the synergistic effects”, the “effect of systemic TNF-α blockade on SMC + ICI efficacy” value is listed as “almost a complete reversal of the efficacy” and the neurotoxicity result is reported as “did not result in any overt neurotoxicity”. Besides, the “physical or behavioral defects in long-term survivors” value (“physical or behavioral defects” for short) in series [1] was “no overt physical or behavioral defects”. The same compound had an expected survival rate in series [1] (po) of 86%. Besides, in the series with EMT6 cells [3], the EC50 is above 2500 nM. Also, in series [4], the “CD4+ and CD25+ T-cells (Treg) in tumors” value is “significant decrease”; the “CD4+ cells expressing IFN-γ” value is on record as “decrease in the proportion of CD4+ cells expressing IFN-γ”; the “CD8+ T-cells expressing PD-1 in tumors” value is on record as “significant increase in CD8+ T-cells expressing PD-1”. The “CD3+ and CD3+ CD8+ cells expressing PD-1” value in series [4] (po, 75 mg/kg) is reported as “robust increase”. Further, the “cell death by UV-inactivated conditioned media of VSVΔ51-infected cells” value in the series on cancer cells was “induced cell death only when the cells were co-treated with an SMC”. The concentration giving a half-maximal response (EC50) in the series on SNB75 cells [5] was above 2500 nM. In the series on MPC-11 Fluc cells, the “tolerability, combination treatment” value is “not well tolerated”; the “tumour burden (luminescence signal)” value is on record as “almost no tumour burden”; the “tumour burden, combination treatment” value is “did not reduce tumour burden as effectively as VSVΔ51 alone”. Besides, the “tumor growth and survival, single agent” value in the series on CT-26 tumors was “modest decrease of the tumor growth rate and a slight extension of survival”. Besides, in the series with MM cells, the “cIAP1 and cIAP2 protein” value was “rapid degradation of cIAP1 and cIAP2”. Further, the “surface expression of PD-L1 and MHC I markers” value with glioma cells is on record as “no significant impact”. Besides, the “CD8+ T-cells expressing TNF-α” value with CD8 T-cells is listed as “significantly increased the proportion of CD8+ T-cells expressing TNF-α”. In [6], this compound returned a durable cure rate of 33%. Moreover, the PD-L1 expression result in series [7] is recorded as “Comparable upregulation”. For the same compound, the “tumor response, oral SMC + BCG” value in the series with EMT6 mammary tumors (BCG intratumorally or intraperitoneally) is “significant tumor regression”. In the series with EMT6 mammary tumors (mouse, in vivo), the durable cure rate came out at 75%; the “durable cures of treated mice” value is recorded as 88%; the “tumor growth and survival, single agent” value was “a decrease in the rate of tumor growth and a modest extension in survival; also recorded: slightly delayed EMT6 tumor growth rates and slightly extended the survival”. For the same compound, in the series on EMT6 mammary tumors (mouse, in vivo, ip), the cure rate is on record as 57% and the “durable cures of treated mice” value turned out to be 60%. Also, the “effect on HT-29 tumors, monotherapy” value with HT-29 tumors is “neither monotherapy had any effect”. In addition, in series [8], the tolerability result is “well tolerated” and the “tolerability of combination therapies” value was “well tolerated”. For the same compound, the “body weight after a single treatment” value in series [8] (po, 50 mg/kg) is “minimal transient weight loss”. In the series with cIAP1/2 and XIAP (setting [12]), the “duration of cIAP1/2 knockdown in tumors” value was “at least 24 hrs” and the “duration of cIAP1/2 knockdown in tumors, in some cases (up to)” value lay in the range of 48 to 72 h. Moreover, in the series with cIAP1/2 and XIAP (direct intracranial injection, 10 μL of a 100 μM solution), the “IAP levels in intracranial CT-2A tumors” value is “potent down-regulation of both cIAP1/2 and XIAP proteins”. Moreover, the “IAP levels in intracranial CT-2A tumors” value in the series on cIAP1/2 and XIAP (systemic SMC, several hours after drug administration, indicative of crossing the BBB) was “degradation of cIAP1/2 proteins”. In addition, the “effect of SMC treatment on growth kinetics of VSVΔ51” value in the series on VSVΔ51 is given as “does not affect the growth kinetics”. In the series on glioblastoma cells, the “death of cultured and primary glioblastoma cell lines” value is reported as “killed”; the “sensitivity of CT-2A cells to combined SMC and recombinant IFN-α” value is reported as “partially sensitive”. In the series with serum cytokines, the “serum IFN-, IL-1-α, IL-1β, IL-17, IFN-γ, IL-27, GM-CSF” value is given as “statistically significant increases”.

Take `CC(C)Cn1cnc2c(N)nc3ccccc3c21` [imiquimod]: in the series on EMT6 cells [9], the “bystander death of SMC treated EMT6 cells” value is listed as “required splenocytes”.

On to IFNα, for which, in series [10], the “killing of MM cells with SMC” value is “very strong synergistic killing”. In series [1], the neurotoxicity entry is recorded as “did not result in any overt neurotoxicity” and the “physical or behavioral defects” value was “no overt physical or behavioral defects”. Also, the “tumor growth and survival, single agent” value in the series on EMT6 mammary tumors (mouse, in vivo) is reported as “no effect on EMT6 tumor growth or overall survival”.

On to poly(I:C), for which the “cell death by brain lysates of treated mice in the presence of SMCs” value in series [11] is “enhanced cell death”. Also, the “physical or behavioral defects” value in series [1] was “no overt physical or behavioral defects”. Moreover, the “bystander death of SMC treated EMT6 cells” value in the series with EMT6 cells [9] is recorded as “led to EMT6 cell death directly”. The “tumor growth and survival, single agent” value in the series on EMT6 mammary tumors (mouse, in vivo) is listed as “no bearing on tumor growth”. In addition, in series [8], the “toxicity of intracranial administration” value is listed as “without overt toxicities”. Also, in the series with TNF-α, the “TNFα levels from the brain” value is recorded as “marked up-regulation”.

The term EC50 denotes the concentration that produces a half-maximal response.
